{"source": "patent US6737383B1", "about": "“Herbicidal oxadiazolidines” (priority 1999, dated 2004)", "key": {"blackgrass": {"test_system": "blackgrass", "experiment": "Test B pre/postemergence blackgrass", "format": "in vivo, Alopecurus myosuroides", "outline": "(§1)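 Response is a visual 0-to-10 score relative to untreated plants, where 0 means no effect and 10 means complete control, taken twelve to sixteen days after application. Treatments went onto soil at planting and onto foliage of 1- to 4-leaf plants, using a surfactant-containing non-phytotoxic solvent.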"}, "soybean": {"test_system": "soybean", "experiment": "Test B pre/postemergence soybean", "format": "in vivo, Glycine max", "outline": "as §1"}, "pigweed": {"test_system": "pigweed", "experiment": "Test B pre/postemergence pigweed", "format": "in vivo, Amaranthus retroflexus", "outline": "as §1"}, "morningglory": {"test_system": "morningglory", "experiment": "Test B pre/postemergence morningglory", "format": "in vivo, Ipomoea hederacea", "outline": "as §1"}, "corn": {"test_system": "corn", "experiment": "Test B pre/postemergence corn", "format": "in vivo, Zea mays", "outline": "as §1"}, "velvetleaf": {"test_system": "velvetleaf", "experiment": "Test B pre/postemergence velvetleaf", "format": "in vivo, Abutilon theophrasti", "outline": "as §1"}, "purple nutsedge": {"test_system": "purple nutsedge", "experiment": "Test B pre/postemergence purple nutsedge", "format": "in vivo, Cyperus rotundus", "outline": "as §1"}, "wild oat": {"test_system": "wild oat", "experiment": "Test B pre/postemergence wild oat", "format": "in vivo, Avena fatua", "outline": "as §1"}, "sugar beet": {"test_system": "sugar beet", "experiment": "Test B pre/postemergence sugar beet", "format": "in vivo, Beta vulgaris", "outline": "as §1"}, "giant foxtail": {"test_system": "giant foxtail", "experiment": "Test B pre/postemergence giant foxtail", "format": "in vivo, Setaria faberii", "outline": "as §1"}, "cocklebur": {"test_system": "cocklebur", "experiment": "Test B pre/postemergence cocklebur", "format": "in vivo, Xanthium strumarium", "outline": "as §1"}, "bedstraw": {"test_system": "bedstraw", "experiment": "Test B pre/postemergence bedstraw", "format": "in vivo, Galium aparine", "conditions": "for Bedstraw plant response rating: 10 is complete control", "outline": "as §1"}, "wheat": {"test_system": "wheat", "experiment": "Test B pre/postemergence wheat", "format": "in vivo, Triticum aestivum", "outline": "as §1"}, "rape": {"test_system": "rape", "experiment": "Test B pre/postemergence rape", "format": "in vivo, Brassica napus", "outline": "as §1"}, "crabgrass": {"test_system": "crabgrass", "experiment": "Test B pre/postemergence crabgrass", "format": "in vivo, Digitaria sanguinalis", "outline": "as §1"}, "surinam grass": {"test_system": "surinam grass", "experiment": "Test B pre/postemergence surinam grass", "format": "in vivo, Brachiaria decumbens", "outline": "as §1"}, "[1]": {"conditions": "Postemergence, Rate 62 g/ha, scale of 0 to 10, 0 is no effect, 10 is complete control"}, "[2]": {"conditions": "Postemergence, Rate 125 g/ha, scale 0 to 10, 0 is no effect, 10 is complete control"}, "[3]": {"conditions": "Postemergence, Rate 250 g/ha, scale 0 to 10"}, "[4]": {"conditions": "Postemergence, Rate 500 g/ha, scale 0 to 10, 0 is no effect, 10 is complete control"}, "[5]": {"conditions": "Preemergence, Rate 62 g/ha, scale of 0 to 10 where 0 is no effect and 10 is complete control"}, "[6]": {"conditions": "Preemergence, Rate 125 g/ha, scale 0 to 10, 0 is no effect, 10 is complete control"}, "[7]": {"conditions": "Preemergence, Rate 250 g/ha, scale 0 to 10, 0 is no effect, 10 is complete control"}, "[8]": {"conditions": "Preemergence, Rate 500 g/ha, scale of 0 to 10 where 0 is no effect and 10 is complete control"}}}
{"smiles": "CC(C)=CCn1c(=O)on(C(=O)N(c2ccc(F)cc2F)C(C)C)c1=O", "note": "[Compound 515]", "values": [{"measurement": "Blackgrass plant response rating", "setting": "blackgrass; [1]", "result": 0}, {"measurement": "Blackgrass plant response rating", "setting": "blackgrass; [2]", "result": 0}, {"measurement": "Blackgrass plant response rating", "setting": "blackgrass; [3]", "result": 0}, {"measurement": "Plant response rating, Blackgrass", "setting": "blackgrass; [4]", "result": 1}, {"measurement": "Plant response rating, Blackgrass", "setting": "blackgrass; [5]", "result": 3}, {"measurement": "Blackgrass plant response rating", "setting": "blackgrass; [6]", "result": 5}, {"measurement": "Blackgrass plant response rating", "setting": "blackgrass; [7]", "result": 5}, {"measurement": "Blackgrass plant response rating", "setting": "blackgrass; [8]", "result": 8}, {"measurement": "Soybean plant response rating", "setting": "soybean; [1]", "result": 4}, {"measurement": "Soybean plant response rating", "setting": "soybean; [2]", "result": 4}, {"measurement": "Plant response rating, Soybean", "setting": "soybean; [4]", "result": 7}, {"measurement": "Plant response rating, Soybean", "setting": "soybean; [5]", "result": 0}, {"measurement": "Soybean plant response rating", "setting": "soybean; [6]", "result": 0}, {"measurement": "Soybean plant response rating", "setting": "soybean; [8]", "result": 0}, {"measurement": "Redroot pigweed plant response rating", "setting": "pigweed; [1]", "result": 3}, {"measurement": "Redroot pigweed plant response rating", "setting": "pigweed; [2]", "result": 4}, {"measurement": "Plant response rating, Redroot pigweed", "setting": "pigweed; [4]", "result": 5}, {"measurement": "Plant response rating, Redroot pigweed", "setting": "pigweed; [5]", "result": 8}, {"measurement": "Redroot pigweed plant response rating", "setting": "pigweed; [6]", "result": 9}, {"measurement": "Redroot pigweed plant response rating", "setting": "pigweed; [8]", "result": 10}, {"measurement": "Morningglory plant response rating", "setting": "morningglory; [1]", "result": 2}, {"measurement": "Morningglory plant response rating", "setting": "morningglory; [2]", "result": 2}, {"measurement": "Plant response rating, Morningglory", "setting": "morningglory; [4]", "result": 6}, {"measurement": "Plant response rating, Morningglory", "setting": "morningglory; [5]", "result": 0}, {"measurement": "Morningglory plant response rating", "setting": "morningglory; [6]", "result": 0}, {"measurement": "Morningglory plant response rating", "setting": "morningglory; [8]", "result": 0}, {"measurement": "Corn plant response rating", "setting": "corn; [1]", "result": 0}, {"measurement": "Corn plant response rating", "setting": "corn; [2]", "result": 0}, {"measurement": "Corn plant response rating", "setting": "corn; [3]", "result": 0}, {"measurement": "Plant response rating, Corn", "setting": "corn; [4]", "result": 0}, {"measurement": "Plant response rating, Corn", "setting": "corn; [5]", "result": 0}, {"measurement": "Corn plant response rating", "setting": "corn; [6]", "result": 0}, {"measurement": "Corn plant response rating", "setting": "corn; [8]", "result": 5}, {"measurement": "Velvetleaf plant response rating", "setting": "velvetleaf; [1]", "result": 2}, {"measurement": "Velvetleaf plant response rating", "setting": "velvetleaf; [2]", "result": 4}, {"measurement": "Plant response rating, Velvetleaf", "setting": "velvetleaf; [4]", "result": 8}, {"measurement": "Plant response rating, Velvetleaf", "setting": "velvetleaf; [5]", "result": 0}, {"measurement": "Velvetleaf plant response rating", "setting": "velvetleaf; [6]", "result": 0}, {"measurement": "Velvetleaf plant response rating", "setting": "velvetleaf; [8]", "result": 6}, {"measurement": "Nutsedge plant response rating", "setting": "purple nutsedge; [1]", "result": 0}, {"measurement": "Nutsedge plant response rating", "setting": "purple nutsedge; [2]", "result": 0}, {"measurement": "Plant response rating, Nutsedge", "setting": "purple nutsedge; [4]", "result": 0}, {"measurement": "Plant response rating, Nutsedge", "setting": "purple nutsedge; [5]", "result": 0}, {"measurement": "Nutsedge plant response rating", "setting": "purple nutsedge; [6]", "result": 0}, {"measurement": "Nutsedge plant response rating", "setting": "purple nutsedge; [8]", "result": 0}, {"measurement": "Wild oats plant response rating", "setting": "wild oat; [1]", "result": 0}, {"measurement": "Wild oats plant response rating", "setting": "wild oat; [2]", "result": 0}, {"measurement": "Plant response rating, Wild oats", "setting": "wild oat; [4]", "result": 0}, {"measurement": "Plant response rating, Wild oats", "setting": "wild oat; [5]", "result": 3}, {"measurement": "Wild oats plant response rating", "setting": "wild oat; [6]", "result": 5}, {"measurement": "Wild oats plant response rating", "setting": "wild oat; [8]", "result": 9}, {"measurement": "Sugarbeets plant response rating", "setting": "sugar beet; [1]", "result": 3}, {"measurement": "Sugarbeets plant response rating", "setting": "sugar beet; [2]", "result": 3}, {"measurement": "Plant response rating, Sugarbeets", "setting": "sugar beet; [4]", "result": 3}, {"measurement": "Plant response rating, Sugarbeets", "setting": "sugar beet; [5]", "result": 0}, {"measurement": "Sugarbeets plant response rating", "setting": "sugar beet; [6]", "result": 4}, {"measurement": "Sugarbeets plant response rating", "setting": "sugar beet; [8]", "result": 7}, {"measurement": "Giant foxtail plant response rating", "setting": "giant foxtail; [1]", "result": 8}, {"measurement": "Giant foxtail plant response rating", "setting": "giant foxtail; [2]", "result": 9}, {"measurement": "Plant response rating, Giant foxtail", "setting": "giant foxtail; [4]", "result": 9}, {"measurement": "Plant response rating, Giant foxtail", "setting": "giant foxtail; [5]", "result": 10}, {"measurement": "Giant foxtail plant response rating", "setting": "giant foxtail; [6]", "result": 10}, {"measurement": "Giant foxtail plant response rating", "setting": "giant foxtail; [8]", "result": 10}, {"measurement": "Cocklebur plant response rating", "setting": "cocklebur; [1]", "result": 0}, {"measurement": "Cocklebur plant response rating", "setting": "cocklebur; [2]", "result": 3}, {"measurement": "Cocklebur plant response rating", "setting": "cocklebur; [3]", "result": 3}, {"measurement": "Plant response rating, Cocklebur", "setting": "cocklebur; [4]", "result": 5}, {"measurement": "Plant response rating, Cocklebur", "setting": "cocklebur; [5]", "result": 0}, {"measurement": "Cocklebur plant response rating", "setting": "cocklebur; [6]", "result": 0}, {"measurement": "Cocklebur plant response rating", "setting": "cocklebur; [7]", "result": 0}, {"measurement": "Cocklebur plant response rating", "setting": "cocklebur; [8]", "result": 0}, {"measurement": "Bedstraw plant response rating", "setting": "bedstraw; Postemergence, Rate 62 g/ha, scale of 0 to 10, 0 is no effect", "result": 6}, {"measurement": "Bedstraw plant response rating", "setting": "bedstraw; Postemergence, Rate 125 g/ha, scale 0 to 10, 0 is no effect", "result": 6}, {"measurement": "Plant response rating, Bedstraw", "setting": "bedstraw; [5]", "result": 0}, {"measurement": "Bedstraw plant response rating", "setting": "bedstraw; Preemergence, Rate 125 g/ha, scale 0 to 10, 0 is no effect", "result": 0}, {"measurement": "Bedstraw plant response rating", "setting": "bedstraw; Preemergence, Rate 250 g/ha, scale 0 to 10, 0 is no effect", "result": 0}, {"measurement": "Bedstraw plant response rating", "setting": "bedstraw; Preemergence, Rate 500 g/ha, scale 0 to 10, 0 is no effect", "result": 3}, {"measurement": "Wheat plant response rating", "setting": "wheat; [1]", "result": 0}, {"measurement": "Wheat plant response rating", "setting": "wheat; [2]", "result": 0}, {"measurement": "Plant response rating, Wheat", "setting": "wheat; [4]", "result": 0}, {"measurement": "Plant response rating, Wheat", "setting": "wheat; [5]", "result": 0}, {"measurement": "Wheat plant response rating", "setting": "wheat; [6]", "result": 0}, {"measurement": "Wheat plant response rating", "setting": "wheat; [8]", "result": 7}, {"measurement": "Rape plant response rating", "setting": "rape; [1]", "result": 4}, {"measurement": "Rape plant response rating", "setting": "rape; [2]", "result": 4}, {"measurement": "Plant response rating, Rape", "setting": "rape; [4]", "result": 6}, {"measurement": "Plant response rating, Rape", "setting": "rape; [5]", "result": 0}, {"measurement": "Rape plant response rating", "setting": "rape; [6]", "result": 4}, {"measurement": "Rape plant response rating", "setting": "rape; [8]", "result": 10}, {"measurement": "Crabgrass plant response rating", "setting": "crabgrass; [1]", "result": 4}, {"measurement": "Crabgrass plant response rating", "setting": "crabgrass; [2]", "result": 8}, {"measurement": "Crabgrass plant response rating", "setting": "crabgrass; [3]", "result": 9}, {"measurement": "Plant response rating, Crabgrass", "setting": "crabgrass; [4]", "result": 9}, {"measurement": "Plant response rating, Crabgrass", "setting": "crabgrass; [5]", "result": 6}, {"measurement": "Crabgrass plant response rating", "setting": "crabgrass; [6]", "result": 7}, {"measurement": "Crabgrass plant response rating", "setting": "crabgrass; [8]", "result": 9}, {"measurement": "B. signalgrass plant response rating", "setting": "surinam grass; [1]", "result": 0}, {"measurement": "B. signalgrass plant response rating", "setting": "surinam grass; [2]", "result": 0}, {"measurement": "B. signalgrass plant response rating", "setting": "surinam grass; Postemergence, Rate 250 g/ha, scale 0 to 10, 0 no effect, 10 complete control", "result": 0}, {"measurement": "Plant response rating, B. signalgrass", "setting": "surinam grass; [4]", "result": 3}, {"measurement": "Plant response rating, B. signalgrass", "setting": "surinam grass; [5]", "result": 2}, {"measurement": "B. signalgrass plant response rating", "setting": "surinam grass; [6]", "result": 8}, {"measurement": "B. signalgrass plant response rating", "setting": "surinam grass; [7]", "result": 8}, {"measurement": "B. signalgrass plant response rating", "setting": "surinam grass; Preemergence, Rate 500 g/ha, scale 0 to 10, 0 is no effect, 10 is complete control", "result": 9}]}
